The values that follow come from patent publication US6331548A, “1-cycloalkyl-1,8-naphthyridin-4-one derivative as type IV phosphodiesterase inhibitor” (Suntory Limited, priority 1998, dated 2001).

Structures can show the parent of a compound that is named as a salt.

In the assay the target is type IV phosphodiesterase. Nature of the assay: Type IV phosphodiesterase inhibiting activity. The class given is biochemical, human. The settings on record: U937 type IV phosphodiesterase fraction, 0.28 μM cAMP, pH 7.5, 30° C., 30 minutes; read-out: PDEIV-IC50. How it is done:
The following assay was used to evaluate the ability of the compound of the present invention to suppress type IV phosphodiesterase, according to Biochemical. Pharmacol. 48 (6), 1219-1223 (1994).
1) Type IV phosphodiesterase activity fractions were prepared as follows. Namely, human histiocytic lymphoma cell line U937 was cultured in an RPMI1640 medium containing 10% fetal calf serum to obtain 10^9 cells of U937. The cells were recovered by centrifugation and suspended in 40 ml of buffer A (20 mM bis-tris, 5 mM 2-mercaptoethanol, 2 mM benzamidine, 2 mM EDTA, 0.1 mM 4-(2-aminoethyl)benzensulfonyl hydrochloride, 50 mM sodium acetate, pH=6.5). The cells were broken by a sonication and centrifuged (4° C., 10,000 G, 10 minutes) to obtain a supernatant. This was filtered by a 0.45 μm filter to obtain the soluble fraction.
2) The soluble fraction obtained was applied into a 1×10 cm DEAE Sepharose column equalibrated with the buffer A. 120 ml of the buffer A containing a linear gradient solution of 0.05 to 1M sodium acetate was used to separate the phosphodiesterase and recover 24 5-ml fractions. Each of the fractions was measured for the cAMP phosphodiesterase activity.
3) The test compound was reacted at a desired concentration in a reaction mixture containing 20 mM tris-HCl (pH 7.5), 1 mM MgCl2, 100 μM EDTA, 330 μg/ml calf serum albumin, 10 μg/ml 5'-nucleotidase, 0.4 μCi ^3 H-cAMP (0.28 μM cAMP) and the type IV phosphodiesterase stored solution at 30° C. for 30 minutes. QAE-Sephadex suspended in 10 mM of hepes-Na (pH -7.0) was added to the reaction mixture which was then allowed to stand for 5 minutes, then the supernatant was obtained, QAE-Sephadex was further added, to the supernatant, and was allowed to stand for 5 minutes, then the supernatant was obtained and measured for radioactivity.
By IC50 is commonly meant the midpoint of a concentration-inhibition curve. As for `CC1(O)CCC(n2cc(C(=O)Nc3c(Cl)cncc3Cl)c(=O)c3cccnc32)CC1` (stereo not drawn) [Example 192, N-(3,5-dichloropyridin-4-yl)-1-(4-hydroxy-4-methylcyclohexyl)-1,4-dihydro[1,8]naphthylidin-4-one-3-carboxamide], the IC50 was determined as 4.1 nM.

For `CC(=O)O[C@H]1CC[C@H](n2cc(C(=O)Nc3c(Cl)cncc3Cl)c(=O)c3cccnc32)CC1` [Example 197, trans-4-[3-{[(3,5-dichloropyridin-4-yl)amino]carbonyl}-1,4-dihydro[1,8]naphthylidin-1-yl]cyclohexyl acetate], the IC50 is 6.2 nM.

Take `O=C(Nc1cccnc1)c1cn(C2CC2)c2ncccc2c1=O` [Example 156, N-(3-pyridyl)-1-cyclopropyl-1,4-dihydro[1,8]naphthylidin-4-one-3-carboxamide]: the IC50 was 150 nM.

Take `CN1CCN(Cc2ccc(C(=O)O[C@H]3CC[C@H](n4cc(C(=O)Nc5c(Cl)cncc5Cl)c(=O)c5cccnc54)CC3)cc2)CC1` [Example 133, trans-4-[3-{[(3,5-dichloro-4-pyridinyl)amino]carbonyl}-4-oxo[1,8]naphthylidin-1(4H)-yl]cyclohexyl 4-[(4-methylpiperazino)methyl]benzoate dihydrochloride]: the IC50 is 7.3 nM.

On to `Cc1cc(NC(=O)c2cn([C@H]3CC[C@H](O)CC3)c3ncccc3c2=O)on1` [Example 178, N-(3-methylisoxazol-5-yl)-1-(trans-4-hydroxycyclohexyl)-1,4-dihydro[1,8]naphthylidin-4-one-3-carboxamide], for which the IC50 was 3300 nM.

For `Cc1noc(NC(=O)c2cn([C@H]3CC[C@H](O)CC3)c3ncccc3c2=O)c1C` [Example 180, N-(3,4-dimethylisoxazol-5-yl)-1-(trans-4-hydroxycyclohexyl)-1,4-dihydro[1,8]naphthylidin-4-one-3-carboxamide], the IC50 is 4500 nM.

As for `Cc1cc(NC(=O)c2cn([C@H]3CC[C@H](O)CC3)c3ncccc3c2=O)sn1` [Example 176, N-(3-methylisothiazol-5-yl)-1-(trans-4-hydroxycyclohexyl)-1,4-dihydro[1,8]naphthylidin-4-one-3-carboxamide], the IC50 is 920 nM.

On to `O=C(NC1CC1)c1cn([C@H]2CC[C@H](O)CC2)c2ncccc2c1=O` [Example 170, N-cyclopropyl-1-(trans-4-hydroxycyclohexyl)-1,4-dihydro[1,8]naphthylidin-4-one-3-carboxamide], for which the IC50 stood at 990 nM.

`Cc1cnccc1NC(=O)c1cn(C2CC2)c2ncccc2c1=O` [Example 157, N-(3-methylpyridin-4-yl)-1-cyclopropyl-1,4-dihydro[1,8]naphthylidin-4-one-3-carboxamide]: the IC50 came out at 130 nM.

With `O=C(O[C@H]1CC[C@H](n2cc(C(=O)Nc3c(Cl)cncc3Cl)c(=O)c3cccnc32)CC1)c1cccc(CN2CCOCC2)c1` [Example 162, trans-4-[3-{[(3,5-dichloro-4-pyridinyl)amino]carbonyl}-4-oxo[1,8]naphthylidin-1(4H)-yl]cyclohexyl 3-(morpholinomethyl)benzoate hydrochloride], the concentration for half-maximal inhibition (IC50) was found to be 6 nM.

Regarding `O=C(Nc1c(Cl)cncc1Cl)c1cn(C2CCCC2)c2ncccc2c1=O` [Example 150, N-(3,5-dichloropyridin-4-yl)-1-cyclopentyl-1,4-dihydro[1,8]naphthylidin-4-one-3-carboxamide], the IC50 was determined as 0.3 nM.

Regarding `CC1(O)CCC(n2cc(C(=O)Nc3ccncc3)c(=O)c3cccnc32)CC1` (stereo not drawn) [Example 194, N-(4-pyridinyl)-1-(4-hydroxy-4-methylcyclohexyl)-1,4-dihydro[1,8]naphthylidin-4-one-3-carboxamide], the IC50 was determined as 960 nM.

Turning to `CC(=O)O[C@H]1CC[C@@H](n2cc(C(=O)Nc3c(Cl)cncc3Cl)c(=O)c3cccnc32)CC1` [Example 118], the IC50 amounted to 1.3 nM.

On to `CCN(CC)Cc1ccc(C(=O)O[C@H]2CC[C@H](n3cc(C(=O)Nc4c(Cl)cncc4Cl)c(=O)c4cccnc43)CC2)cc1` [Example 159, trans-4-[3-{[(3,5-dichloro-4-pyridinyl)amino]carbonyl}-4-oxo[1,8]naphthylidin-1(4H)-yl]cyclohexyl 4-(diethylaminomethyl)benzoate hydrochloride], for which the IC50 was 4 nM.

For `O=C(NC1CCCC1)c1cn([C@H]2CC[C@H](O)CC2)c2ncccc2c1=O` [Example 168, N-cyclopentyl-1-(trans-4-hydroxycyclohexyl)-1,4-dihydro[1,8]naphthylidin-4-one-3-carboxamide], the IC50 amounted to 1500 nM.

In the case of `O=C1CCC(n2cc(C(=O)Nc3ccncc3)c(=O)c3cccnc32)CC1` [Example 61, N-(4-pyridyl)-1-(4-oxocyclohexyl)-1,4-dihydro[1,8]naphthylidin-4-one-3-carboxamide], the IC50 was 180 nM.

`O=C(Nc1ccncc1)c1cn([C@H]2CC[C@@H](O)CC2)c2ncccc2c1=O` [Example 115, N-(4-pyridyl)-1-(cis-4-hydroxycyclohexyl)-1,4-dihydro[1,8]naphthylidin-4-one-3-carboxamide]: the IC50 was determined as 210 nM.

As to `O=C(O[C@H]1CC[C@H](n2cc(C(=O)Nc3c(Cl)cncc3Cl)c(=O)c3cccnc32)CC1)c1ccc(CN2CCOCC2)cc1` [Example 135, trans-4-[3-{[(3,5-dichloro-4-pyridinyl)amino]carbonyl}-4-oxo[1,8]naphthylidin-1(4H)-yl]cyclohexyl 4-(morpholinomethyl)benzoate hydrochloride], the 50% inhibitory concentration (IC50) turned out to be 4.5 nM.

Regarding `O=C(NC1CCC1)c1cn([C@H]2CC[C@H](O)CC2)c2ncccc2c1=O` [Example 164], the IC50 is 400 nM.

Regarding `COC(=O)N1CCC(n2cc(C(=O)Nc3c(Cl)cccc3Cl)c(=O)c3cccnc32)C1` (racemic) [Example 4, (±)-N-(2,6-dichlorophenyl)-1-(1-methoxycarbonylpyrrolidin-3-yl)-1,4-dihydro[1,8]naphthyridin-4-one-3-carboxamide], the IC50 stood at 60 nM.

In the case of `CCNC(=O)N[C@H]1CC[C@H](n2cc(C(=O)Nc3c(Cl)cncc3Cl)c(=O)c3cccnc32)CC1` [Example 71, N-(3,5-dichloropyridin-4-yl)-1-[trans-4-(ethylaminocarbonylamino)cyclohexyl]-1,4-dihydro[1,8]naphthylidin-4-one-3-carboxamide], the IC50 was determined as 0.5 nM.

As for `Cc1nn(C)c(C)c1NC(=O)c1cn([C@H]2CC[C@H](O)CC2)c2ncccc2c1=O` [Example 184, N-(1,3,5-trimethylpyrazol-4-yl)-1-(trans-4-hydroxycyclohexyl)-1,4-dihydro[1,8]naphthylidin-4-one-3-carboxamide], the IC50 was 2300 nM.

`CCC(=O)O[C@H]1CC[C@H](n2cc(C(=O)Nc3c(Cl)cncc3Cl)c(=O)c3cccnc32)CC1` [Example 129, trans-4-[3-{[(3,5-dichloro-4-pyridinyl)amino]carbonyl}-4-oxo[1,8]naphthylidin-1(4H)-yl]cyclohexylpropionate]: the IC50 stood at 9.3 nM.

Consider `CC(=O)N[C@H]1CC[C@H](n2cc(C(=O)Nc3c(Cl)cncc3Cl)c(=O)c3cccnc32)CC1` [Example 70, N-(3,5-dichloropyridin-4-yl)-1-[trans-4-(acetylamino)cyclohexyl]-1,4-dihydro[1,8]naphthylidin-4-one-3-carboxamide], for which the IC50 came to 3.9 nM.

As for `O=C(Nc1ccncc1)c1cn(C2CCC2)c2ncccc2c1=O` [Example 144, N-(4-pyridyl)-1-cyclobutyl-1,4-dihydro[1,8]naphthylidin-4-one-3-carboxamide], the IC50 was 120 nM.

As to `N[C@H]1CC[C@H](n2cc(C(=O)Nc3c(Cl)cncc3Cl)c(=O)c3cccnc32)CC1` [Example 69, N-(3,5-dichloropyridin-4-yl)-1-(trans-4-aminocyclohexyl)-1,4-dihydro[1,8]naphthylidin-4-one-3-carboxamide acetate], the 50% inhibitory concentration (IC50) amounted to 210 nM.

Take `O=C(Nc1c(Cl)cncc1Cl)c1cn(C2CCC2)c2ncccc2c1=O` [Example 145, N-(3,5-dichloropyridin-4-yl)-1-cyclobutyl-1,4-dihydro[1,8]naphthylidin-4-one-3-carboxamide]: the IC50 was 8.3 nM.

For `O=C(Nc1cccnc1)c1cn([C@H]2CC[C@H](O)CC2)c2ncccc2c1=O` [Example 172, N-(3-pyridyl)-1-(trans-4-hydroxycyclohexyl)-1,4-dihydro[1,8]naphthylidin-4-one-3-carboxamide], the IC50 was 360 nM.

Regarding `CS(=O)(=O)N[C@H]1CC[C@H](n2cc(C(=O)Nc3c(Cl)cncc3Cl)c(=O)c3cccnc32)CC1` [Example 72, N-(3,5-dichloropyridin-4-yl)-1-[trans-4-(methanesulfonylamino)cyclohexyl]-1,4-dihydro[1,8]naphthylidin-4-one-3-carboxamide], the IC50 came out at 110 nM.

Consider `CCOC(=O)N1CCC(n2cc(C(=O)Nc3c(Cl)cncc3Cl)c(=O)c3cccnc32)CC1` [Example 62, N-(3,5-dichloropyridin-4-yl)-1-(1-ethoxycarbonylpiperidin-4-yl)-1,4-dihydro[1,8]naphthylidin-4-one-3-carboxamide], for which the IC50 came to 2.3 nM.
